We go through twelve compounds from patent publication US9029400B2, “5-oxoisoxazoles as inhibitors of lipases and phospholipases” (Sanofi, priority 2007, dated 2015).

Usually IC50 stands for the point on the concentration scale where inhibition reaches its midpoint.

This test has as its target T1, endothelial lipase (EL) (Homo sapiens, UniProt Q9Y5X9).
T1 construct: made in house; host or cells: recombinant CHO or HEK293 cell lines; concentrated conditioned medium used as enzyme solution
T1 sequence (Q9Y5X9 21-500): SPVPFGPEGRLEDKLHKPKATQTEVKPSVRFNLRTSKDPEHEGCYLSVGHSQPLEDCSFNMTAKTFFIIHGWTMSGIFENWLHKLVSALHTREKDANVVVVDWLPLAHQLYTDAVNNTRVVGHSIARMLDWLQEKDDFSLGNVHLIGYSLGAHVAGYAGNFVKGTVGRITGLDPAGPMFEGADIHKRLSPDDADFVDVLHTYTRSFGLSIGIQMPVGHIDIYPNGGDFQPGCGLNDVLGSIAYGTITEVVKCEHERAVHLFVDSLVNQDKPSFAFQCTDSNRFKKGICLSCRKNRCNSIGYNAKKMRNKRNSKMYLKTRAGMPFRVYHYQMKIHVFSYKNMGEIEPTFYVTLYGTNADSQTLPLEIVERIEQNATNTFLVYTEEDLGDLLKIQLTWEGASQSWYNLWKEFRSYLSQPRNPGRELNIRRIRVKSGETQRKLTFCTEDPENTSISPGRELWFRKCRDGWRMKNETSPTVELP
The test is described as follows: EL inhibition assay (endothelial lipase activity, fluorescent Bodipy phospholipid substrate). Type of test: biochemical. As to conditions: 37° C., 90 minutes; enzyme from conditioned medium of recombinant cell lines (CHO, HEK293). The method, then:
The activity of the compounds of the invention of the formula I was tested in the following enzyme assay system: […]
EL is released as secretory protein in high concentration into cell culture medium (conditioned medium) by recombinant cell lines (CHO, HEK293). This is employed as enzyme solution after concentration.
The phospholipase-specific substrate 1,2-bis(4,4-difluoro-5,7-dimethyl-4-bora-3a,4a-diaza-s-indacene-3-undecanoyl)-sn-glycero-3-phosphocholine, (manufacturer Molecular Probes) is used to characterize the enzymatic activity of endothelial lipase and the effect of inhibitors. Hydrolysis of the A1 ester linkage of this phospholipid by the enzyme liberates a fatty acid labeled by the fluorescent dye Bodipy which can be detected after separation by thin-layer chromatography on an HPTLC plate (silica gel 60, Merck) or directly in the reaction vessel by measuring the fluorescence.
The substrate solution is prepared by dissolving 100 μg of 1,2-bis(4,4-difluoro-5,7-dimethyl-4-bora-3a,4a-diaza-s-indacene-3-undecanoyl)-sn-glycero-3-phosphocholine (manufacturer Molecular Probes) in 100 μl DMSO and taking it up in 2.4 mg of tripalmitin (Sigma) in 393 μl chloroform which contains 20 mg/ml DOP-choline (1,2-dioleoyl-sn-glycero-3-phosphocholine). 39.3 μl of this lipid mixture are transferred into a fresh reaction vessel and the solvent is evaporated. The lipid mixture is dissolved in 4 ml of 200 mM TRIS-HCl, 150 mM sodium chloride, pH=7.4, by sonication twice. The subsequent enzymic reaction takes place at 37° C. for 90 minutes. For this purpose, 20 μl of the substrate solution are incubated with 2 μl of inhibitor of appropriate concentration (dissolved in 10% DMSO, 10% strength DMSO solution is used as control) and 2 μl of enzyme solution (conditioned medium). Then 4 μl of the assay mixture are loaded onto an HPTLC plate (silica gel 60, Merck), and the liberated fluorescent dye is separated for detection with an eluent (diethyl ether:petroleum benzine:acetic acid [78:22:1]). After evaporation of the eluent, the plate is read in a fluorescence scanner. An increased release of the fluorescent dye in the uninhibited reaction is to be observed as a measure of the enzymic activity.
The enzymatic activity is reduced as a function of the inhibitor concentration used, and the inhibitor concentration at which a half-maximum enzymic activity is observed is called IC50.
For `Cc1c(C(C)C)c(=O)on1C(=O)NCc1cc2ccccc2s1` [Example 8], the IC50 is 3.2 µM.
As for `Cc1ccc(CNC(=O)n2oc(=O)c(C(C)C)c2C)cc1` [Example 7], the figure is 0.9 µM.
As for `Cc1c(C(C)C)c(=O)on1C(=O)NC1CCc2ccccc21` (stereo not drawn) [Example 10], the figure is 0.06 µM; as for `Cc1cccc(C)c1CNC(=O)n1oc(=O)c2c1CCCC2` [Example 39], 0.001 µM; as for `Cc1c(C)n(C(=O)NC2CCc3ccccc32)oc1=O` (stereo not drawn) [Example 31], 0.1 µM.
Regarding `Cc1c(C(C)C)c(=O)on1C(=O)NCc1cccs1` [Example 18], the 50% inhibitory concentration (IC50) amounted to 14.1 µM.
As for `O=C(N[C@H]1CCc2ccccc21)n1oc(=O)cc1C1CC1` [Example 44], the figure is 0.5 µM.
On to `Cc1ccc(CNC(=O)n2oc(=O)c3c2CCCC3)cc1C` [Example 25], for which the half-inhibitory concentration (IC50) is 0.009 µM.
As for `Cc1ccc(CNC(=O)n2oc(=O)c3c2CCCC3)cc1` [Example 26], the figure is 0.035 µM.
As for `Cc1cccc(CNC(=O)n2oc(=O)c3c2CCCC3)c1` [Example 40], the figure is 0.053 µM.
As for `Cc1ccccc1CNC(=O)n1oc(=O)c(C(C)C)c1C` [Example 6], the figure is 0.028 µM; as for `Cc1ccc(CNC(=O)n2oc(=O)c(C(C)C)c2C)cc1C` [Example 16], 0.004 µM.
